From US20060025589A1, “2-Thiohydantoine derivative compounds and use thereof for the treatment of diabetes” (priority 2002, published 2006)

Tested on: male C57BL/KsJ-db/db mice
Assay: in vivo reduction of serum glucose and triglyceride levels in diabetic db/db mice
Conditions: gavage, suspended in 3% gum arabic, twice daily for 10 days plus morning of day 11, doses below 200 mg/kg, generally 10 mg/kg, blood taken 4 h after last administration
Method: The compounds of formula (I) according to the invention were subjected to pharmacological tests in order to evaluate their potential to reduce the blood glycemia level.
The in vivo studies were carried out on male C57BL/KsJ-db/db mice originating from CERJ (Route des Chênes Secs—BP 5—53940 Le Genest St Isle—France).
The animals are accommodated in cages fitted with a filter lid and have free access to an irradiated standard food and to filtered drinking water. All the equipment used (cages, feeding bottles, pipettes and shavings) is sterilized by autoclaving, irradiation or immersion in a disinfectant. The temperature of the room is maintained at 23±2° C. The light-dark cycle is 12 h.
During the acclimatization period, each animal is tagged with an electronic chip, which is implanted under anesthesia effected by the inhalation of a CO2/O2 mixture.
Groups of 8 to 10 mice are formed and the treatments start when the animals are 9 to 11 weeks old. The products are suspended in gum arabic at a concentration of 3% and administered to the animals by means of a gavage cannula for 10 days at a rate of two administrations per day, as well as on the morning of day 11. The products are tested at doses below 200 mg/kg and generally of 10 mg/kg. The animals in the control group receive the dosage vehicle only.
A blood sample is taken before treatment and then four hours after the last administration of the product. The animals are anesthetized by the inhalation of a CO2/O2 mixture and the blood is taken from the retro-orbital sinus, collected in a dry tube and kept cold. The serum is separated off by centrifugation at 2800 g (15 minutes, 4° C.) during the hour following sampling. The samples are kept at −20° C. until they are analyzed.
The serum glucose and triglyceride levels are determined on a Konélab 30 analyzer by means of Konélab kits. The animals whose glycemia before treatment was below 3 g/l are systematically excluded from the study.
For each group, the mean glucose and triglyceride levels after treatment are calculated and the results are expressed as the percentage variation of these means relative to the control group after verification of the homogeneity of the means before treatment.

| Compound | Gly (decrease in the glycemia level; percentage variation of mean serum glucose relative to the control group) [%] | TG (decrease in the triglyceride level; percentage variation of mean serum triglycerides relative to the control group) [%] |
| --- | --- | --- |
| CC1C(=O)N(c2cccc(F)c2)C(=S)N1c1ccc(Oc2ccccc2)cc1 (centres unmarked) [Example 20, 3-(3-Fluorophenyl)-5-methyl-1-(4-phenoxyphenyl)-2-thioxoimidazolidin-4-one] | −47 | −47 |
| COc1ccc(N2C(=O)C(C)(C)N(c3ccc(Oc4ccccc4)cc3)C2=S)cc1 [Example 30, 5,5-Dimethyl-3-(4-methoxyphenyl)-1-(4-phenoxyphenyl)-2-thioxoimidazolidin-4-one] | −54 | −53 |
| COc1ccc(N2C(=O)C(C)N(c3ccc(OCc4ccccc4)cc3)C2=S)cc1 (centres unmarked) [Example 139] | −36 | −32 |
| CC1C(=O)N(c2ccc(Cc3ccccc3)cc2)C(=S)N1c1ccccc1 (centres unmarked) [Example 185, 5-Methyl-1-phenyl-3-[4-(phenylmethyl)phenyl]-2-thioxoimidazolidin-4-one] | −57 | −39 |
| C=CCN1CC(=O)N(c2ccc(Cc3ccccc3)cc2)C1=S [Example 190, 3-[4-(Phenylmethyl)phenyl]-1-(2-propenyl)-2-thioxoimidazolidin-4-one] | −58 | −53 |
| COc1ccc(N2C(=O)CN(c3ccc(Cc4ccccc4)cc3)C2=S)cc1 [Example 195, 3-(4-Methoxyphenyl)-1-[4-(phenylmethyl)phenyl]-2-thioxoimidazolidin-4-one] | −53 | −46 |
| COc1ccc(N2C(=O)C(C)N(c3ccc(Cc4ccccc4)cc3)C2=S)cc1 (centres unmarked) [Example 200, 3-(4-Methoxyphenyl)-5-methyl-1-[4-(phenylmethyl)phenyl]-2-thioxoimidazolidin-4-one] | −63 | −58 |
